Measurements: patent publication US20260184663A1, “INDENE COMPOUNDS, PHARMACEUTICAL COMPOSITIONS THEREOF, AND THEIR THERAPEUTIC APPLICATIONS” (NucMito Pharmaceuticals co. Ltd., priority 2022, published 2026)

How the values were obtained:
Assay type in all cases: cell-based
HeLa (cervical cancer) = assay: Antiproliferative activity (CCK-8 cell viability), HeLa; conditions: Homo sapiens, 72 h, read-out: Antiproliferative activity in cancerous cells, HELA (inhibition of cell growth); for inhibition at 3.3 µM: Compound concentration: 3.3 μM; for inhibition at 10 µM: Compound concentration: 10 μM
Outline: (§1)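 Growth inhibition graded in bands from percent viability against DMSO vehicle, read as CCK-8 absorbance at 450 nm. Compound tested at 3.3, 10 or 30 μM for 72 h, 37 °C; media contained 10% FBS: DMEM for HepG2/SW480, MEM for HeLa, F-12K for A549.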

SW480 (colon cancer) = assay: Antiproliferative activity (CCK-8 cell viability), SW480; conditions: Homo sapiens, 72 h, read-out: Antiproliferative activity in cancerous cells, SW480 (inhibition of cell growth); for inhibition at 3.3 µM: Compound concentration: 3.3 μM; for inhibition at 10 µM: Compound concentration: 10 μM
Outline: as §1

[1] = test system: A549 (lung adenocarcinoma); assay: Antiproliferative activity (CCK-8 cell viability), A549; conditions: Homo sapiens, 72 h, read-out: Antiproliferative activity in cancerous cells, A549 (inhibition of cell growth); for inhibition at 3.3 µM: Compound concentration: 3.3 μM; for inhibition at 10 µM: Compound concentration: 10 μM
Outline: as §1

[2] = test system: A431 (epidermoid carcinoma); assay: Antiproliferative activity (CCK-8 cell viability), A431; conditions: Homo sapiens, 72 h, read-out: Antiproliferative activity in cancerous cells, A431 (inhibition of cell growth); for inhibition at 3.3 µM: A-431, Compound concentration: 3.3 μM; for inhibition at 10 µM: A-431, Compound concentration: 10 μM
Outline: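 This growth inhibition assay used A431 cells maintained in Dulbecco's modified Eagle's medium plus 10% fetal bovine serum. Cells were seeded in 96-well plates, treated with compound for 72 h at 37° C., and then given 10 μL CCK-8 solution. After a further 4 h, absorbance was read at 450 nm.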

HepG2 (liver cancer) = assay: Antiproliferative activity (CCK-8 cell viability), HepG2; conditions: Homo sapiens, 72 h, read-out: Antiproliferative activity in cancerous cells, HepG2 (inhibition of cell growth); for inhibition at 3.3 µM: Compound concentration: 3.3 μM; for inhibition at 10 µM: Compound concentration: 10 μM
Outline: as §1

[3] = test system: B16F10 (malignant melanoma); assay: Antiproliferative activity (CCK-8 cell viability), B16F10; conditions: Mus musculus, 72 h, read-out: Antiproliferative activity in cancerous cells, B16F10 (inhibition of cell growth); for inhibition at 3.3 µM: B16-F10, Compound concentration: 3.3 μM; for inhibition at 10 µM: B16-F10, Compound concentration: 10 μM
Outline: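 Cell growth inhibition was measured in B16F10 malignant melanoma cells with a Cell Counting Kit-8 viability assay. Cells were maintained in DMEM plus 10% fetal bovine serum, seeded at 2,000-5,000 cells/well in 96-well plates, and treated for 72 h at 37° C. Viability was expressed relative to DMSO-treated vehicle control wells.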

[4] = test system: MDA-MB-231 (breast cancer); assay: Antiproliferative activity (CCK-8 cell viability), MDA-MB-231; conditions: Homo sapiens, 72 h, read-out: Antiproliferative activity in cancerous cells, MDA-MB-231 (inhibition of cell growth); for inhibition at 3.3 µM: Compound concentration: 3.3 μM; for inhibition at 10 µM: Compound concentration: 10 μM
Outline: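 Growth inhibition of human MDA-MB-231 breast cancer cells was assessed with a Cell Counting Kit-8. Cells cultured in DMEM plus 10% FBS were seeded at 2,000-5,000 cells/well, treated after attachment, and kept 72 h at 37° C. CCK-8 solution (10 μL) was added for 4 h, and absorbance at 450 nm was compared with DMSO-treated controls.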

| Structure (SMILES) | inhibition at 3.3 µM (HeLa (cervical cancer)) [%] | inhibition at 10 µM (HeLa (cervical cancer)) [%] | inhibition at 3.3 µM (SW480 (colon cancer)) [%] | inhibition at 10 µM (SW480 (colon cancer)) [%] | inhibition at 3.3 µM [1] [%] | inhibition at 10 µM [1] [%] | inhibition at 3.3 µM [2] [%] | inhibition at 10 µM [2] [%] | inhibition at 3.3 µM (HepG2 (liver cancer)) [%] | inhibition at 10 µM (HepG2 (liver cancer)) [%] | inhibition at 3.3 µM [3] [%] | inhibition at 10 µM [3] [%] | inhibition at 3.3 µM [4] [%] | inhibition at 10 µM [4] [%] |
| --- | --- | --- | --- | --- | --- | --- | --- | --- | --- | --- | --- | --- | --- | --- |
| CC1=C(CC(=O)O)c2cc(C)ccc2/C1=C\c1ccc(COCc2ccc(F)cc2)cc1 [B110, (Z)-2-(1-(4-(((4-Fluorobenzyl)oxy)methyl)benzylidene)-2,5-dimethyl-1H-inden-3-yl)acetic acid] | < 30 | ≥ 50 | < 30 | ≥ 50 | 30 to 50 | ≥ 50 | 30 to 50 | ≥ 50 | < 30 | 30 to 50 | ≥ 50 | ≥ 50 | ≥ 50 | ≥ 50 |
| CC1=C(CC(=O)O)c2cc(F)ccc2/C1=C\c1ccc(COCc2ccc(C(F)(F)F)cc2)cc1 [B111, (Z)-2-(5-Fluoro-2-methyl-1-(4-(((4-(trifluoromethyl)benzyl)oxy)methyl)-benzylidene)-1H-inden-3-yl)acetic acid] | ≥ 50 | ≥ 50 | < 30 | ≥ 50 | 30 to 50 | ≥ 50 | < 30 | ≥ 50 | < 30 | ≥ 50 | 30 to 50 | ≥ 50 | 30 to 50 | ≥ 50 |
| COc1cc(COCc2ccc(/C=C3/C(C)=C(CC(=O)O)c4cc(F)ccc43)cc2)ccc1F [B113, (Z)-2-(5-Fluoro-1-(4-(((4-fluoro-3-methoxybenzyl)oxy)methyl)benzylidene)-2-methyl-1H-inden-3-yl)acetic acid] | < 30 | ≥ 50 | < 30 | ≥ 50 | 30 to 50 | ≥ 50 | ≥ 50 | ≥ 50 | < 30 | < 30 | < 30 | < 30 | 30 to 50 | ≥ 50 |
| CC1=C(CC(=O)O)c2cc(F)ccc2/C1=C\c1ccc(CCCc2ccccc2)cc1 [B114, (Z)-2-(5-Fluoro-2-methyl-1-(4-(3-phenylpropyl)benzylidene)-1H-inden-3-yl)acetic acid] | ≥ 50 | ≥ 50 | ≥ 50 | ≥ 50 | 30 to 50 | ≥ 50 | 30 to 50 | ≥ 50 | ≥ 50 | ≥ 50 | < 30 | < 30 | < 30 | < 30 |
| CC1=C(CC(=O)O)c2cc(Cl)ccc2/C1=C\c1ccc(COCc2ccc(Cl)cc2)cc1 [B115, (Z)-2-(5-Chloro-1-(4-(((4-chlorobenzyl)oxy)methyl)benzylidene)-2-methyl-1H-inden-3-yl)acetic acid] | < 30 | ≥ 50 | < 30 | ≥ 50 | 30 to 50 | ≥ 50 | ≥ 50 | ≥ 50 | ≥ 50 | ≥ 50 | 30 to 50 | ≥ 50 | < 30 | < 30 |
| CC1=C(CC(=O)O)c2cc(F)ccc2/C1=C\c1ccc(CCCCc2ccc(F)cc2)cc1 [B116, (Z)-2-(5-Fluoro-1-(4-(4-(4-fluorophenyl)butyl)benzylidene)-2-methyl-1H-inden-3-yl)acetic acid] | ≥ 50 | ≥ 50 | < 30 | ≥ 50 | 30 to 50 | ≥ 50 | ≥ 50 | ≥ 50 | ≥ 50 | ≥ 50 | 30 to 50 | 30 to 50 | < 30 | < 30 |
| CC1=C(CC(=O)O)c2cc(F)ccc2/C1=C\c1ccc(CCCc2ccc(F)cc2)cc1 [B117, (Z)-2-(5-Fluoro-1-(4-(3-(4-fluorophenyl)propyl)benzylidene)-2-methyl-1H-inden-3-yl)acetic acid] | < 30 | ≥ 50 | ≥ 50 | ≥ 50 | 30 to 50 | ≥ 50 | 30 to 50 | ≥ 50 | ≥ 50 | ≥ 50 | < 30 | ≥ 50 | < 30 | < 30 |
| COc1ccc2c(c1)C(CC(=O)O)=C(C)/C2=C/c1ccc(COCc2ccc(Cl)cc2)cc1 [B118, (Z)-2-(1-(4-(((4-Chlorobenzyl)oxy)methyl)benzylidene)-5-methoxy-2-methyl-1H-inden-3-yl)acetic acid] | < 30 | ≥ 50 | ≥ 50 | ≥ 50 | 30 to 50 | ≥ 50 | ≥ 50 | ≥ 50 | < 30 | ≥ 50 | ≥ 50 | ≥ 50 | < 30 | < 30 |
| CC1=C(CC(=O)O)c2cc(F)ccc2/C1=C\c1ccc(CCCc2ccc(Cl)cc2)cc1 [B119, (Z)-2-(1-(4-(3-(4-Chlorophenyl)propyl)benzylidene)-5-fluoro-2-methyl-1H-inden-3-yl)acetic acid] | < 30 | ≥ 50 | ≥ 50 | ≥ 50 | 30 to 50 | ≥ 50 | ≥ 50 | ≥ 50 | ≥ 50 | ≥ 50 | < 30 | ≥ 50 | < 30 | < 30 |
| CC1=C(CC(=O)O)c2cc(Br)ccc2/C1=C\c1ccc(COCc2ccc(Cl)cc2)cc1 [B120, (Z)-2-(5-Bromo-1-(4-(((4-chlorobenzyl)oxy)methyl)benzylidene)-2-methyl-1H-inden-3-yl)acetic acid] | ≥ 50 | ≥ 50 | < 30 | ≥ 50 | 30 to 50 | ≥ 50 | ≥ 50 | ≥ 50 | 30 to 50 | ≥ 50 | < 30 | < 30 | < 30 | < 30 |
| CCc1ccc2c(c1)/C(=C\c1ccc(COCc3ccc(F)cc3)cc1)C(C)=C2CC(=O)O [B121, (Z)-2-(6-Ethyl-1-(4-(((4-fluorobenzyl)oxy)methyl)benzylidene)-2-methyl-1H-inden-3-yl)acetic acid] | < 30 | ≥ 50 | < 30 | 30 to 50 | 30 to 50 | ≥ 50 | ≥ 50 | ≥ 50 | < 30 | ≥ 50 | 30 to 50 | 30 to 50 | < 30 | < 30 |
